Reference: US9624215B2, “Amine derivative or salt thereof” (TOYAMA CHEMICAL CO., LTD., priority 2012, dated 2017)

Assays:
[1] = system: normal human neonatal foreskin epidermal keratinocytes (NHEK-F); test: Cell proliferation inhibition test; type: cell-based; conditions: Keratinocyte, 72 h, NHEK-F cells, three days incubation, ATPlite or CellTiterGlo, read-out: IC50 (concentration of the compound at which the cell count is reduced by 50%)
Summary of the method: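 NHEK-F keratinocytes, 2×10^3 per well in Humedia-EG2, plated overnight, then exposed to compound for three days. Cell count by ATPlite or CellTiterGlo luminescence; inhibition = 100 − (treated/untreated count)×100, IC50 as 50% reduction concentration.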

[2] = system: TPA-induced ear edema and acanthosis in Balb/c mice; test: Mouse TPA-induced ear-swelling model; type: in vivo; conditions: topical, 240 h, 1% w/v solution, 20 μL applied to ear once a day from day 0 to day 9, female Balb/c mice, read-out: Inhibition rate of change in ear thickness on day 10
Description: Seven-week-old female Balb/c mice (Charles River Laboratories Japan) were used. 20 μL of a 20 ng/mL solution of TPA (Wako Pure Chemical Industries, 162-23591) dissolved in 5% DMSO/acetone was applied to the outer side of the mouse ear on day 0, day 2, day 4, day 7 and day 9 to induce ear edema and acanthosis. The test compound was dissolved in a 5% DMSO/acetone solution (concentration: 1% w/v) and 20 μL of the resulting solution was applied to the outer side of the ear once a day from day 0 to day 9. For the control group, a 5% DMSO/acetone solution was similarly applied. The TPA solution and the test compound solution were mixed and applied on the days for TPA application (day 0, day 2, day 4, day 7 and day 9). The ear thickness was chronologically measured on days 0-4 and days 7-10 using a micrometer (Mitutoyo, MDC-25MJT). The change in ear thickness and the inhibition rate were determined by the following formulas. Change in ear thickness=(ear thickness measured on day 10)−(ear thickness measured on day 0 before TPA application) Inhibition rate (%)=100−(change in ear thickness for test compound group/change in ear thickness for control group)×100

Compound	IC50 [1] [nM]	inhibition in vivo at 1 % strength [2] [%]
CC(C)CCn1ccc2cc(Nc3ncc(C4CC4)cc3C(=O)O)ccc21 [Example 448, 5-cyclopropyl-2-(1-isopentyl-1H-indol-5-ylamino)nicotinic acid]	≤ 10	≥ 20
O=C(O)c1cc(C2CC2)cnc1Nc1ccc2c(ccn2Cc2cccc(C(F)(F)F)c2)c1 [Example 450, 5-cyclopropyl-2-((1-(3-(trifluoromethyl)benzyl)-1H-indol-5-yl)amino)nicotinic acid]	≤ 10	≥ 20
N#Cc1cccc(Cn2ccc3cc(Nc4ncc(C5CC5)cc4C(=O)O)ccc32)c1 [Example 453, 2-((1-(3-cyanobenzyl)-1H-indol-5-yl)amino)-5-cyclopropylnicotinic acid]	10 to 100	≥ 20
Cc1ccccc1Cn1ccc2cc(Nc3ncc(C4CC4)cc3C(=O)O)ccc21 [Example 455, 5-cyclopropyl-2-((1-(2-methylbenzyl)-1H-indol-5-yl)amino)nicotinic acid]	≤ 10	≥ 20
Cc1cccc(Cn2ccc3cc(Nc4ncc(C5CC5)cc4C(=O)O)ccc32)c1 [Example 456, 5-cyclopropyl-2-((1-(3-methylbenzyl)-1H-indol-5-yl)amino)nicotinic acid]	≤ 10	≥ 20
Cc1ccc(Cn2ccc3cc(Nc4ncc(C5CC5)cc4C(=O)O)ccc32)cc1 [Example 457, 5-cyclopropyl-2-((1-(4-methylbenzyl)-1H-indol-5-yl)amino)nicotinic acid]	≤ 10	≥ 20
O=C(O)c1cc(C2CC2)cnc1Nc1ccc2c(ccn2Cc2ccccc2F)c1 [Example 458, 5-cyclopropyl-2-((1-(2-fluorobenzyl)-1H-indol-5-yl)amino)nicotinic acid]	≤ 10	≥ 20
O=C(O)c1cc(C2CC2)cnc1Nc1ccc2c(ccn2Cc2cccc(Cl)c2)c1 [Example 460, 2-((1-(3-chlorobenzyl)-1H-indol-5-yl)amino)-5-cyclopropylnicotinic acid]	≤ 10	≥ 20
Cn1ccc2cc(Nc3ncc(C4CC4)cc3C(=O)O)cc(-c3ccccc3F)c21 [Example 464, 5-cyclopropyl-2-((7-(2-fluorophenyl)-1-methyl-1H-indol-5-yl)amino)nicotinic acid]	≤ 10	≥ 20
Cn1ccc2cc(Nc3ncc(C4CC4)cc3C(=O)O)cc(-c3ccc(F)cc3)c21 [Example 466, 5-cyclopropyl-2-((7-(4-fluorophenyl)-1-methyl-1H-indol-5-yl)amino)nicotinic acid]	≤ 10	≥ 20
COCCCc1cc(Nc2ncc(C3CC3)cc2C(=O)O)cc2ccn(C)c12 [Example 468, 5-cyclopropyl-2-((7-(3-methoxypropyl)-1-methyl-1H-indol-5-yl)amino)nicotinic acid]	10 to 100	≥ 20
Cn1ccc2cc(Nc3ncc(C4CC4)cc3C(=O)O)cc(CCC3CC3)c21 [Example 470, 5-cyclopropyl-2-((7-(2-cyclopropylethyl)-1-methyl-1H-indol-5-yl)amino)nicotinic acid]	≤ 10	≥ 20
Cn1ccc2cc(Nc3ncc(C4CC4)cc3C(=O)O)cc(-c3ccccc3C#N)c21 [Example 482, 2-((7-(2-cyanophenyl)-1-methyl-1H-indol-5-yl)amino)-5-cyclopropylnicotinic acid]	≤ 10	≥ 20
Cn1ccc2cc(Nc3ncc(C4CC4)cc3C(=O)O)cc(-c3ccc(C#N)cc3)c21 [Example 484, 2-((7-(4-cyanophenyl)-1-methyl-1H-indol-5-yl)amino)-5-cyclopropylnicotinic acid]	≤ 10	≥ 20
COc1ccccc1-c1cc(Nc2ncc(C3CC3)cc2C(=O)O)cc2ccn(C)c12 [Example 485, 5-cyclopropyl-2-((7-(2-methoxyphenyl)-1-methyl-1H-indol-5-yl)amino)nicotinic acid]	≤ 10	≥ 20
O=C(O)c1cc(C2CC2)cnc1Nc1ccc2c(ccn2Cc2cc(F)cc(F)c2)c1 [Example 497, 5-cyclopropyl-2-((1-(3,5-difluorobenzyl)-1H-indol-5-yl)amino)nicotinic acid]	≤ 10	≥ 20
O=C(O)c1cc(C2CC2)cnc1Nc1ccc2ccn(CC3CCCCC3)c2c1 [Example 523, 2-((1-(cyclohexylmethyl)-1H-indol-6-yl)amino)-5-cyclopropylnicotinic acid]	≤ 10	≥ 20

Compound	IC50 [1] [nM]	inhibition in vivo at 1 % strength [2] [%]
O=C(O)c1cc(C2CC2)cnc1Nc1ccc2c(cnn2CC2CCCCC2)c1 [Example 543, 2-((1-(cyclohexylmethyl)-1H-indazol-5-yl)amino)-5-cyclopropylnicotinic acid]	≤ 10	≥ 20
Cn1cc(-c2ccccc2F)c2cc(Nc3ncc(C4CC4)cc3C(=O)O)ccc21 [Example 557, 5-cyclopropyl-2-((3-(2-fluorophenyl)-1-methyl-1H-indol-5-yl)amino)nicotinic acid]	10 to 100	≥ 20
O=C(O)c1cc(C2CC2)cnc1Nc1ccc2c(c1)sc(=O)n2CC1CCCCC1 [Example 565, 2-((3-(cyclohexylmethyl)-2-oxo-2,3-dihydro-1,3-benzothiazol-6-yl)amino)-5-cyclopropylnicotinic acid]	≤ 10	≥ 20
Cc1cc2c(ccn2Cc2ccccc2)cc1Nc1ncc(C2CC2)cc1C(=O)O [Example 585, 2-((1-benzyl-6-methyl-1H-indol-5-yl)amino)-5-cyclopropylnicotinic acid]	≤ 10	≥ 20
Cn1ccc2cc(Nc3ncc(C4CC4)cc3C(=O)O)cc(-c3ccc(F)cc3F)c21 [Example 588, 5-cyclopropyl-2-((7-(2,4-difluorophenyl)-1-methyl-1H-indol-5-yl)amino)nicotinic acid]	≤ 10	≥ 20
Cn1ccc2cc(Nc3ncc(C4CC4)cc3C(=O)O)cc(CCC(C)(C)C)c21 [Example 595, 5-Cyclopropyl-2-((7-(3,3-dimethylbutyl)-1-methyl-1H-indol-5-yl)amino)nicotinic acid]	≤ 10	≥ 20
Cn1nccc1-c1cc(Nc2ncc(C3CC3)cc2C(=O)O)cc2ccn(C)c12 [Example 596, 5-cyclopropyl-2-((1-methyl-7-(1-methyl-1H-pyrazol-5-yl)-1H-indol-5-yl)amino)nicotinic acid]	≤ 10	≥ 20
CCn1ccc2cc(Nc3ncc(C4CC4)cc3C(=O)O)cc(-c3ccccc3)c21 [Example 597, 5-cyclopropyl-2-((1-ethyl-7-phenyl-1H-indol-5-yl)amino)nicotinic acid]	≤ 10	≥ 20
CCn1ccc2cc(Nc3ncc(C4CC4)cc3C(=O)O)cc(CCCOC)c21 [Example 598, 5-cyclopropyl-2-((1-ethyl-7-(3-methoxypropyl)-1H-indol-5-yl)amino)nicotinic acid]	10 to 100	≥ 20
O=C(O)c1cc(C2CC2)cnc1Nc1ccc2c(ccn2CCc2ccccc2)c1 [Example 619, 5-cyclopropyl-2-((1-(2-phenylethyl)-1H-indol-5-yl)amino)nicotinic acid]	≤ 10	≥ 20
Cc1cc(Nc2ncc(C3CC3)cc2C(=O)O)cc2ccn(Cc3cccc(F)c3)c12 [Example 621, 5-cyclopropyl-2-((1-(3-fluorobenzyl)-7-methyl-1H-indol-5-yl)amino)nicotinic acid]	≤ 10	≥ 20
CCC(CC)Cn1ccc2cc(Nc3ncc(C4CC4)cc3C(=O)O)ccc21 [Example 632, 5-cyclopropyl-2-((1-(2-ethylbutyl)-1H-indol-5-yl)amino)nicotinic acid]	≤ 10	≥ 20
O=C(O)c1cc(C2CC2)cnc1Nc1ccc2c(ccn2Cc2ccc(F)cc2F)c1 [Example 633, 5-cyclopropyl-2-((1-(2,4-difluorobenzyl)-1H-indol-5-yl)amino)nicotinic acid]	≤ 10	≥ 20
O=C(O)c1cc(C2CC2)cnc1Nc1ccc2c(ccn2Cc2ccc(F)c(F)c2)c1 [Example 635, 5-cyclopropyl-2-((1-(3,4-difluorobenzyl)-1H-indol-5-yl)amino)nicotinic acid]	≤ 10	≥ 20
CCCCn1ccc2cc(Nc3ncc(C4CC4)cc3C(=O)O)ccc21 [Example 637, 2-((1-butyl-1H-indol-5-yl)amino)-5-cyclopropylnicotinic acid]	10 to 100	≥ 20
CCCCCn1ccc2cc(Nc3ncc(C4CC4)cc3C(=O)O)ccc21 [Example 638, 5-cyclopropyl-2-((1-pentyl-1H-indol-5-yl)amino)nicotinic acid]	10 to 100	≥ 20
